# Test results taken from patent US11370774B2, “Substituted benzofuran, benzopyrrole, benzothiophene, and structurally related complement inhibitors” (BioCryst Pharmaceuticals, Inc., priority 2018, dated 2022).
# Target: Factor D (Homo sapiens (Human), UniProt P00746)
# Experiment: Factor D esterolytic assay (Z-Lys-SBzl substrate, DTNB, 405 nm)
# Type: biochemical
# Conditions: Z-Lys-SBzl 1.29 mM, pH 7.5, 10% DMSO, tested a minimum of three times, read-out: Measured Ki (IC50) Value for Compounds: IC50
# Experimental: The IC50 value of a compound (i.e., the concentration of the compound that inhibits 50% of the enzymatic activity) was calculated according to the procedure reported in U.S. Pat. No. 6,653,340 B1, e.g., column 74 (incorporated by reference).
# Specifically, the compounds were dissolved in a stock solution of DMSO at 10.0 or 100 mM. A portion of this stock solution was added to assay buffer in a final volume of 50 μL. Controls included buffer alone and enzyme solutions to which DMSO was added. Substrate was added to the reaction wells immediately or after incubation at room temperature. The reaction rates were measured spectrophotometrically by the generation of product at 405 nm for 600 sec. Background absorbance at 690 nm was measured and subtracted from the absorbance at 405 nm for each well.
# The reaction rate for enzyme alone was compared to the rate of enzyme in the presence of inhibitor and the percent inhibition was calculated as shown below: Percent Inhibition=[Rate without inhibitor−Rate with inhibitor)/(Rate without inhibitor)]×100 Factor D Esterolytic Assay:
# An established esterolytic assay for the measurement of Factor D activity and inhibition of Factor D activity was used (Kam, C. M.; McRae, B. J.; Harper, J. W.; Niemann, M. A.; Volanakis, J. E.; Powers, J. C. Human complement proteins D, C2, and B Active site mapping with peptide thioester substrates. J Biol. Chem. 1987, 262, 3444-3451). For this assay Z-Lys-SBzl, 1.29 mM (Kim, S.; Narayana, S. V. L; Volanakis, J. E. Mutational analysis of the substrate binding site of human complement Factor D. Biochemistry. 1994, 33, 14393-14399.) was used as the substrate for Factor D ([…]). Hydrolysis of this compound by Factor D liberated a free sulfhydryl group which is then reacted with 5,5′-dithiobis(2nitrobenzoic acid) producing an intense yellow color (Habeeb, A. F. S. A. Reaction of protein sulfhydryl groups with Ellman's Reagent. Methods in Enzymol. 1976, 25, 457-464). The assays were performed in 96 well microtiter plates and rates of hydrolysis were monitored at 405 nm on a Biotek Synergy H1 plate reader. Hydrolysis rates were reported as change in mOD/min. The assay was conducted in 100 mM HEPES, 500 mM NaCl, pH 7.5 containing 10% DMSO in a final volume of 50 μL per well.
# An IC50, a compound concentration which inhibits 50% of the enzymatic activity, was calculated. Compounds in the examples were tested a minimum of three times.
# Sequence of Factor D (P00746 26-253): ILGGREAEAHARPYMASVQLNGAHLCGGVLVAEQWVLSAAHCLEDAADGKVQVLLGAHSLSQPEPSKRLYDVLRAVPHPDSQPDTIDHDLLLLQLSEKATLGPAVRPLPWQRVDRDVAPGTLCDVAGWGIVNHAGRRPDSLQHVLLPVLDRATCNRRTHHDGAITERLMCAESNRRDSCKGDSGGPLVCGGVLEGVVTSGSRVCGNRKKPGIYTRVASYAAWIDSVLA
row,SMILES,IC50 [nM]
1,"CCCc1cc2cc(COc3ccccc3CC(=O)O)cc(-c3cccc(CN)c3)c2o1 [Compound 187f, 2-(2-((7-(3-(aminomethyl)phenyl)-2-propylbenzofuran-5-yl)methoxy)phenyl)acetic acid]",< 1000
2,"CN(Cc1ccccc1CC(=O)O)c1cc(-c2cccc(CN)c2)c2occc2c1 [Compound 378d, 2-(2-(((7-(3-(aminomethyl)phenyl)benzofuran-5-yl)(methyl)amino)methyl)phenyl)acetic acid]",< 1000
3,"NCc1cccc(-c2cc(COc3ccccc3CC(=O)O)cc3c2cnn3CC2CC2)c1 [Compound 126h, 2-(2-((4-(3-(aminomethyl)phenyl)-1-(cyclopropylmethyl)-1H-indazol-6-yl)methoxy)phenyl)acetic acid]",< 1000
4,"NCc1cccc(-c2cc(COc3ccccc3CC(=O)O)cc3sc(Cl)cc23)c1 [Compound 215h, 2-(2-((4-(3-(aminomethyl)phenyl)-2-chlorobenzo[b]thiophen-6-yl)methoxy)phenyl)acetic acid]",< 1000
5,"NCc1cccc(-c2cn3cccc3c(C(=O)Nc3ccccc3CC(=O)O)n2)c1 [Compound 93h, 2-(2-(3-(3-(aminomethyl)phenyl)pyrrolo[1,2-a]pyrazine-1-carboxamido)phenyl)acetic acid]",< 1000
6,"Cc1ccc(CC(=O)O)c(OCc2cc(-c3cccc(CN)c3)c3occc3c2F)c1 [Compound 347b, 2-(2-((7-(3-(aminomethyl)phenyl)-4-fluorobenzofuran-5-yl)methoxy)-4-methylphenyl)acetic acid]",< 1000
7,"NCCNCc1cc2cc(COc3ccccc3CC(=O)O)cc(-c3cccc(CN)c3)c2o1 [Compound 196d, 2-(2-((2-(((2-aminoethyl)amino)methyl)-7-(3-(aminomethyl)phenyl)benzofuran-5-yl)methoxy)phenyl)acetic acid]",< 1000
8,"NCc1cc(-c2cc(COc3ccccc3CC(=O)O)cc3sccc23)ccn1 [Compound 221c, 2-(2-((4-(2-(aminomethyl)pyridin-4-yl)benzo[b]thiophen-6-yl)methoxy)phenyl)acetic acid]",< 1000
9,"NCc1cccc(-c2cc(COc3cc(C4CC4)ccc3CC(=O)O)cc3ccoc23)c1 [Compound 203c, 2-(2-((7-(3-(aminomethyl)phenyl)benzofuran-5-yl)methoxy)-4-cyclopropylphenyl)acetic acid]",< 1000
10,"COCc1cc2cc(COc3cc(C#N)ccc3CC(=O)O)cc(-c3cccc(CN)c3F)c2o1 [Compound 416d, 2-(2-((7-(3-(aminomethyl)-2-fluorophenyl)-2-(methoxymethyl)benzofuran-5-yl)methoxy)-4-cyanophenyl)acetic acid]",< 1000
11,"NCc1cc(-c2cc(COc3cc(F)ccc3CC(=O)O)cc3ccoc23)ccn1 [Compound 365f, 2-(2-((7-(2-(aminomethyl)pyridin-4-yl)benzofuran-5-yl)methoxy)-4-fluorophenyl)acetic acid]",< 1000
12,"COCc1cc2cc(COc3cc(F)ccc3CC(=O)O)cc(-c3ccnc(CN)c3F)c2o1 [Compound 514d, 2-(2-((7-(2-(aminomethyl)-3-fluoropyridin-4-yl)-2-(methoxymethyl)benzofuran-5-yl)methoxy)-4-fluorophenyl)acetic acid]",< 1000
13,"CC(C)n1ccc2c(-c3ccnc(CN)c3)cc(COc3ccccc3CC(=O)O)cc21 [Compound 118c, 2-(2-((4-(2-(aminomethyl)pyridin-4-yl)-1-isopropyl-1H-indol-6-yl)methoxy)phenyl)acetic acid]",< 1000
14,"Cc1cc2c(-c3ccnc(CN)c3)cc(COc3ccccc3CC(=O)O)cc2o1 [Compound 461c, 2-(2-((4-(2-(aminomethyl)pyridin-4-yl)-2-methylbenzofuran-6-yl)methoxy)phenyl)acetic acid]",< 1000
15,"NCc1cccc(-c2nc(C(=O)Nc3cccnc3CC(=O)O)c3cccn3n2)c1 [Compound 157d, 2-(3-(2-(3-(aminomethyl)phenyl)pyrrolo[2,1-f][1,2,4]triazine-4-carboxamido)pyridin-2-yl)acetic acid]",> 10000
16,"CC(=O)c1ccc(CC(=O)O)c(OCc2cc(-c3cccc(CN)c3)c3occ(C(F)(F)F)c3c2)c1 [Compound 506e, 2-(4-acetyl-2-((7-(3-(aminomethyl)phenyl)-3-(trifluoromethyl)benzofuran-5-yl)methoxy)phenyl)acetic acid]",< 1000
17,"NCc1cccc(-c2cc(C(=O)Nc3ccccc3CC(=O)O)cc3cccnc23)c1 [Compound 13c, 2-(2-(8-(3-(aminomethyl)phenyl)quinoline-6-carboxamido)phenyl)acetic acid]",1000 to 10000
18,"COCc1cc2cc(COc3cc(C)ccc3CC(=O)O)cc(-c3cccc(CN)c3)c2o1 [Compound 415e, 2-(2-((7-(3-(aminomethyl)phenyl)-2-(methoxymethyl)benzofuran-5-yl)methoxy)-4-methylphenyl)acetic acid]",< 1000
19,"NCc1nccc(-c2cc(COc3cc(F)ccc3CC(=O)O)cc3cc(F)oc23)c1F [Compound 522c, 2-(2-((7-(2-(aminomethyl)-3-fluoropyridin-4-yl)-2-fluorobenzofuran-5-yl)methoxy)-4-fluorophenyl)acetic acid]",< 1000
20,"Cc1ccc(OCc2cc(-c3cccc(CN)c3)c3occc3c2)c(CC(=O)O)c1 [Compound 162e, 2-(2-((7-(3-(aminomethyl)phenyl)benzofuran-5-yl)methoxy)-5-methylphenyl)acetic acid]",< 1000
21,"NCc1cccc(-c2cc(COc3ccccc3CC(=O)O)cc3cc(C(F)(F)F)oc23)c1F [Compound 235b, 2-(2-((7-(3-(aminomethyl)-2-fluorophenyl)-2-(trifluoromethyl)benzofuran-5-yl)methoxy)phenyl)acetic acid]",< 1000
22,"N[C@H](c1cc(-c2cc(COc3ccccc3CC(=O)O)cc3ccoc23)ccn1)C(F)(F)F [Compound 380e, (R)-2-(2-((7-(2-(1-amino-2,2,2-trifluoroethyl)pyridin-4-yl)benzofuran-5-yl)methoxy)phenyl)acetic acid]",> 10000
23,"COc1ccc(CC(=O)O)c(OCc2cc(-c3cccc(CN)c3)c3ccn(C(C)C)c3c2)c1 [Compound 356c, 2-(2-((4-(3-(aminomethyl)phenyl)-1-isopropyl-1H-indol-6-yl)methoxy)-4-methoxyphenyl)acetic acid]",< 1000
24,"NCc1cccc(-c2cc(COc3ccccc3CC(=O)O)cc3oc(Cl)cc23)c1F [Compound 24b, 2-(2-((4-(3-(aminomethyl)-2-fluorophenyl)-2-chlorobenzofuran-6-yl)methoxy)phenyl)acetic acid]",< 1000
25,"NCc1cc(-c2cc(COc3ccccc3CC(=O)O)cc3cc(CCO)oc23)ccn1 [Compound 185c, 2-(2-((7-(2-(aminomethyl)pyridin-4-yl)-2-(2-hydroxyethyl)benzofuran-5-yl)methoxy)phenyl)acetic acid]",< 1000
26,"NCc1cccc(-c2nc(C(=O)Nc3ccoc3CC(=O)O)c3cccn3n2)c1F [Compound 143g, 2-(3-(2-(3-(aminomethyl)-2-fluorophenyl)pyrrolo[2,1-f][1,2,4]triazine-4-carboxamido)furan-2-yl)acetic acid]",> 10000
27,"Cc1ccc(S(=O)(=O)n2ccc3cc(COc4ccccc4CC(=O)O)cc(-c4cccc(CN)c4)c32)cc1 [Compound 146g, 2-(2-((7-(3-(aminomethyl)phenyl)-1-tosyl-1H-indol-5-yl)methoxy)phenyl)acetic acid]",1000 to 10000
28,"NCc1cccc(-c2cc(COc3ccccc3CC(=O)O)cc3cc(Cn4ccnc4)oc23)c1 [Compound 140c, 2-(2-((2-((1H-imidazol-1-yl)methyl)-7-(3-(aminomethyl)phenyl)benzofuran-5-yl)methoxy)phenyl)acetic acid]",< 1000
29,"Cc1ccc(CC(=O)O)c(OCc2cc(-c3cccc(CN)c3F)c3ccn(C(C)C)c3c2)c1 [Compound 353b, 2-(2-((4-(3-(aminomethyl)-2-fluorophenyl)-1-isopropyl-1H-indol-6-yl)methoxy)-4-methylphenyl)acetic acid]",< 1000
30,"Cc1ccc(CC(=O)O)c(OCc2cc(-c3cccc(CN)c3)c3oc(CO)cc3c2)c1 [Compound 420e, 2-(2-((7-(3-(aminomethyl)phenyl)-2-(hydroxymethyl)benzofuran-5-yl)methoxy)-4-methylphenyl)acetic acid]",< 1000
